Data as given in ChEMBL document CHEMBL5120859, “Optimization of 4-arylthiophene-3-carboxylic acid derivatives as inhibitors of ANO1: Lead optimization studies toward their analgesic efficacy for inflammatory pain” (Eur J Med Chem, 2022).
Active and inactive are the calls of the source. The calls are words filed in the database; no cut-off is given here.

Legend:
Mus musculus [1] = test: Analgesic activity in C57BL/6 mouse model of formalin-induced allodynia assessed as reduction on foot licking pain response at 40 to 80 mg/kg,po measured at 15 to 60 mins; type: functional, organism-based; conditions: dose 40-80 mg/kg, time 15-60 min, DDE = dose-dependent effect
[2] = molecular target: T1, Anoctamin-1 (Homo sapiens) (UniProt Q5XXA6); test: Inhibition of YFP tagged ANO1 (unknown origin) expressed in FRT cells at 30 uM incubated for 24 hrs by whole cell patch clamp electrophysiology relative to control; type: cell-based
T1 sequence (whole entry): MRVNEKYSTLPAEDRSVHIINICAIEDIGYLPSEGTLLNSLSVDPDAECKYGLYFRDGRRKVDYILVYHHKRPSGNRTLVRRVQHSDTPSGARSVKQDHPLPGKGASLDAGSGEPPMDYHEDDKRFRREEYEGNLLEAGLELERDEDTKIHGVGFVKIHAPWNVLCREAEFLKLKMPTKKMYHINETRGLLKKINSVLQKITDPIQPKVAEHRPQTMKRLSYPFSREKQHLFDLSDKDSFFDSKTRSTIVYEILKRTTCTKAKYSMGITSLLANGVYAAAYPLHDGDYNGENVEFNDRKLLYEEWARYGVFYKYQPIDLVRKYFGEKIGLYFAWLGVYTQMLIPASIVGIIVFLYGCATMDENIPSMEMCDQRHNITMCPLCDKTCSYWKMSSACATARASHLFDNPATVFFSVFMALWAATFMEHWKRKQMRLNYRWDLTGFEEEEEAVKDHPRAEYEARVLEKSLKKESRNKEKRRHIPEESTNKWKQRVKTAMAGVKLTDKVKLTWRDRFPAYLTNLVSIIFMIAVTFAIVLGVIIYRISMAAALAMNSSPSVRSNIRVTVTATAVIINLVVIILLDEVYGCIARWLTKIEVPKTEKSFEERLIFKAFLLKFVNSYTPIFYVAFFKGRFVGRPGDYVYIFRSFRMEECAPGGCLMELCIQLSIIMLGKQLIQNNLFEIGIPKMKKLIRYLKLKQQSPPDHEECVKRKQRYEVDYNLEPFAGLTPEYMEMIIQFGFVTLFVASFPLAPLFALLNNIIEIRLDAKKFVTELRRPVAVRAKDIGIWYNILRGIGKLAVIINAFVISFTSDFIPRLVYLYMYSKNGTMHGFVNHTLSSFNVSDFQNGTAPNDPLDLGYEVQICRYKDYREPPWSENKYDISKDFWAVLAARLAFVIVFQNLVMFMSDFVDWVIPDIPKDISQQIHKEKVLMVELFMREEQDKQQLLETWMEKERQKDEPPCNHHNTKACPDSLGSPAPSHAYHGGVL

[3] = Plasma concentration in C57BL/6 mouse at 40 mg/kg,IG measured after 6 hrs by HPLC analysis; type: ADME, organism-based; conditions: po
[4] = Cmax in C57BL/6 mouse at 40 mg/kg,IG measured upto 24 hrs by HPLC-MS/MS analysis; type: ADME, organism-based; parameters: dose 40 mg/kg, time < 24 hrs, route ig; conditions: in vivo, po
[5] = molecular target: Sodium channel protein type 7 subunit alpha (Homo sapiens) (UniProt Q01118); test: Inhibition of Nav1.7 (unknown origin) in half-inactivated condition at 30 uM by whole cell patch clamp electrophysiology relative to control
Sequence of Sodium channel protein type 7 subunit alpha (Homo sapiens) (Q01118 whole entry): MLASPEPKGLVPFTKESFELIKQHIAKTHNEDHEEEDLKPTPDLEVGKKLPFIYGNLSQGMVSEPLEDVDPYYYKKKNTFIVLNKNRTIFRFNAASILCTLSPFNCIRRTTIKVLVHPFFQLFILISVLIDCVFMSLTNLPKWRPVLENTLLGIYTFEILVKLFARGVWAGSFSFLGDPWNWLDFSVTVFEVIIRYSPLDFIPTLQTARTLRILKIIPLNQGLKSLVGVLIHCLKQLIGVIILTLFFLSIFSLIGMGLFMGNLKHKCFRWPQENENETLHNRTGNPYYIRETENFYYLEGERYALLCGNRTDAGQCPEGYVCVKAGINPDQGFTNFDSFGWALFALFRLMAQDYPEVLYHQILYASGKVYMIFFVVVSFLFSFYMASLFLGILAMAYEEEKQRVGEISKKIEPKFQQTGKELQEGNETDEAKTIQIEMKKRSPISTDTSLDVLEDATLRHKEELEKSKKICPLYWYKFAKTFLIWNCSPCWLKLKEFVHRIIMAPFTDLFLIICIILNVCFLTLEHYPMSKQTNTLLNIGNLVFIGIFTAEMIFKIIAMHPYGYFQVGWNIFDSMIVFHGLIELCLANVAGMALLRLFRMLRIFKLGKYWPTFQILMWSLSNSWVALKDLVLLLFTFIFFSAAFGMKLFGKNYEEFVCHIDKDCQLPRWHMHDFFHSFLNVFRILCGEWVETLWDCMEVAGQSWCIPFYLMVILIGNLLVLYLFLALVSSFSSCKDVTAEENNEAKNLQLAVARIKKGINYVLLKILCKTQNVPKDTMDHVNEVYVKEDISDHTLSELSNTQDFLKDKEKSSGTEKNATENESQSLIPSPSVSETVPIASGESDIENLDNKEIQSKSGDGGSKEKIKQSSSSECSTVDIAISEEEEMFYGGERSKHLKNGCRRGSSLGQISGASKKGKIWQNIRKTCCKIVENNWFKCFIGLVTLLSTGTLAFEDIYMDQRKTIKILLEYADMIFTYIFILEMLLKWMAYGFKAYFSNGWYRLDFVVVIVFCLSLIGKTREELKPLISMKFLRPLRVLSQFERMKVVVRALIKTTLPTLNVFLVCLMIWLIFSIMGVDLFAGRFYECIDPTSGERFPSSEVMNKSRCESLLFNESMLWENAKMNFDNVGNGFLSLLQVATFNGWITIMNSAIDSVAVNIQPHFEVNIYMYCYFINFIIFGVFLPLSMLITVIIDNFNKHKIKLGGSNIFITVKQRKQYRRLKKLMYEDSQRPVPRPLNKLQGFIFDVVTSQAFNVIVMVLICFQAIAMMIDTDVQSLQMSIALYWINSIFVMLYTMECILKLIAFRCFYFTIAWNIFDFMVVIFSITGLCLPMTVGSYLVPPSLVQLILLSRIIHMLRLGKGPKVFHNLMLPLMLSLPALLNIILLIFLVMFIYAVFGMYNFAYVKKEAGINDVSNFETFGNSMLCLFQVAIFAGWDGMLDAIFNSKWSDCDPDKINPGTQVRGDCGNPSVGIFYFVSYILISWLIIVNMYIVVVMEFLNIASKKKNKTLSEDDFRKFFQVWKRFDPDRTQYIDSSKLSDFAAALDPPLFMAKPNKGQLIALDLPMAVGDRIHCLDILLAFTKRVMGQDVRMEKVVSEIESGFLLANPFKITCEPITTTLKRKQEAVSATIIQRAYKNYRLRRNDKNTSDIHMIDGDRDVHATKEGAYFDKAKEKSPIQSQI

[6] = molecular target: Voltage-gated potassium channel, KQT; KCNQ2(Kv7.2)/KCNQ3(Kv7.3) (Homo sapiens) (UniProt O43526+O43525); test: Inhibition of KCNQ2/3 (unknown origin) at a holding potential -40 mV at 30 uM by whole cell patch clamp electrophysiology relative to control
[7] = Toxicity in C57BL/6 mouse model of capsaicin-induced allodynia assessed as increase in body temperature at 40 to 80 mg/kg,po; type: organism-based; conditions: in vivo, dose 40-80 mg/kg
[8] = Volume of distribution at steady state in C57BL/6 mouse at 40 mg/kg,iv measured upto 24 hrs by HPLC-MS/MS analysis; type: ADME, organism-based; conditions: in vivo, read-out: Vdss
[9] = Acute toxicity in C57BL/6 mouse assessed as animal survival at 1000 mg/kg,po measured after 24 hrs; type: organism-based; conditions: in vivo
[10] = Acute toxicity in C57BL/6 mouse assessed as toxic symptoms at 1000 mg/kg,po measured after 24 hrs; type: organism-based; conditions: in vivo
[11] = AUC (0 to t) in C57BL/6 mouse at 80 mg/kg,IG measured upto 24 hrs by HPLC-MS/MS analysis; type: ADME, organism-based; parameters: dose 80 mg/kg, time < 24 hrs, route ig; conditions: in vivo, po
[12] = Brain concentration in C57BL/6 mouse at 40 mg/kg,IG measured after 24 hrs by HPLC analysis; type: ADME, organism-based; conditions: po, read-out: Ct
[13] = Tmax in C57BL/6 mouse at 40 mg/kg,iv measured upto 24 hrs by HPLC-MS/MS analysis; type: ADME, organism-based; conditions: in vivo
[14] = molecular target: Voltage-dependent N-type calcium channel subunit alpha-1B (Homo sapiens) (UniProt Q00975); test: Inhibition of Cav2.2 (unknown origin) at a holding potential +10 mV at 30 uM by whole cell patch clamp electrophysiology relative to control
Sequence of Voltage-dependent N-type calcium channel subunit alpha-1B (Homo sapiens) (Q00975 whole entry, looked up): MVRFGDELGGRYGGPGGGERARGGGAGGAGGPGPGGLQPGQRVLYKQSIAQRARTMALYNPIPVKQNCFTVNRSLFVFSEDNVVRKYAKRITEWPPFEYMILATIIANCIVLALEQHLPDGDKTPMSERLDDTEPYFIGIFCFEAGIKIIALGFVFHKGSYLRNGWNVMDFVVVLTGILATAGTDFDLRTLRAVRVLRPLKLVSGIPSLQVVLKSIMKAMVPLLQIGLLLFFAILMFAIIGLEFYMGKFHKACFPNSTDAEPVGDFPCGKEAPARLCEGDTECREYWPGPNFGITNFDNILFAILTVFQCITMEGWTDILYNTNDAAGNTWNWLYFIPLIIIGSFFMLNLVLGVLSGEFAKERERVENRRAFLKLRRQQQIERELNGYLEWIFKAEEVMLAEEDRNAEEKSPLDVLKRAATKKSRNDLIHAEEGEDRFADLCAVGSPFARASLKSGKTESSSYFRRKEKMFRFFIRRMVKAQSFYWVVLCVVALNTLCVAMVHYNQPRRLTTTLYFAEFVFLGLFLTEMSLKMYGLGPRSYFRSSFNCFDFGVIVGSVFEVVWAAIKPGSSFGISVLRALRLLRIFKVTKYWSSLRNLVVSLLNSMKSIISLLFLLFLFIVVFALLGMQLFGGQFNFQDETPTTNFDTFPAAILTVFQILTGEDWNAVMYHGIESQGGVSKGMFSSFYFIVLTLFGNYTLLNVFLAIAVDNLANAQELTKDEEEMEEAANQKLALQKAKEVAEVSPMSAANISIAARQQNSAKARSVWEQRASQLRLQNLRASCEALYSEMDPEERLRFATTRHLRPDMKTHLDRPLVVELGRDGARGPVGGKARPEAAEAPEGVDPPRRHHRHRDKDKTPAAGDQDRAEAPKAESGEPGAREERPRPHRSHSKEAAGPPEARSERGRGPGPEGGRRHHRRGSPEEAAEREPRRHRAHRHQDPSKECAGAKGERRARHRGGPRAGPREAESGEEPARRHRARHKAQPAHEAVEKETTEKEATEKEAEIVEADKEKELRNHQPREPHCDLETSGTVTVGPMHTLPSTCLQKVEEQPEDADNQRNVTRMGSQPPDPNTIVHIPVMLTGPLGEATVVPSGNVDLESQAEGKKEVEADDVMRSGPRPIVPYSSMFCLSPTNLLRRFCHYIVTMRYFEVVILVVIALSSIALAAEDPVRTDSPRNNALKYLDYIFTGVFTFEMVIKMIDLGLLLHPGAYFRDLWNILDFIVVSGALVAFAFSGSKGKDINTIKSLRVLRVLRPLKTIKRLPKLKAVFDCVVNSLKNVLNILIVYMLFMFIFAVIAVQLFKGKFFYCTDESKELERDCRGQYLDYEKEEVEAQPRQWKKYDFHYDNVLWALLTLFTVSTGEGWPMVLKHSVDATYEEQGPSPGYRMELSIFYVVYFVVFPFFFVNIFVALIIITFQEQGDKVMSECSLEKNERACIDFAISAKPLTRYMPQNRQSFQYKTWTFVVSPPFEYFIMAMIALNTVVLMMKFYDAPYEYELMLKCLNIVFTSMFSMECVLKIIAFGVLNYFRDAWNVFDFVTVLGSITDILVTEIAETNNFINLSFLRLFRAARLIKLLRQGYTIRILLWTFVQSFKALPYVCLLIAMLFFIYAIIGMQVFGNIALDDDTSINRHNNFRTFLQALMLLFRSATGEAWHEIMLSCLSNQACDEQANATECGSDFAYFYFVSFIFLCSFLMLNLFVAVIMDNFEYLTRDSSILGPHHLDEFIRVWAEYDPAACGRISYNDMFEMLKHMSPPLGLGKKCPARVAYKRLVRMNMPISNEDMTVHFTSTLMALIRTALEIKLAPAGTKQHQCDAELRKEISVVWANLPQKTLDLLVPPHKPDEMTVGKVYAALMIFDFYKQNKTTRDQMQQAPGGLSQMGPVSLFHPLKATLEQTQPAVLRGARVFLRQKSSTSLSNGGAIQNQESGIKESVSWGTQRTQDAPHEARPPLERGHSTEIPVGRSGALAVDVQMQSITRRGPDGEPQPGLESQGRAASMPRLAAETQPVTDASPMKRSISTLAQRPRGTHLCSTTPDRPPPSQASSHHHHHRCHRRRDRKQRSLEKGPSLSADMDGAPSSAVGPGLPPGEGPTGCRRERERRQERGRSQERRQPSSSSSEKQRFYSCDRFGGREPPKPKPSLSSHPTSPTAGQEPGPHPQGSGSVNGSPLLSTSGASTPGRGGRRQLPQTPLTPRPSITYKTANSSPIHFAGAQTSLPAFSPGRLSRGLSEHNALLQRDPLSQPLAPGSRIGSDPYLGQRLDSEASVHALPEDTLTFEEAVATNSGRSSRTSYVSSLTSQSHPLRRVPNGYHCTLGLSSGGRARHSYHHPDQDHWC

[15] = Cytotoxicity against human HEK293 cells assessed as inhibition of cell growth at 30 uM incubated for 72 hrs by CCK-8 assay; type: toxicity, cell-based
[16] = Cmax in C57BL/6 mouse at 40 mg/kg,iv measured upto 24 hrs by HPLC-MS/MS analysis; type: ADME, organism-based; parameters: time < 24 hrs, dose 40 mg/kg, route iv; conditions: in vivo
[17] = Tmax in C57BL/6 mouse at 40 mg/kg,IG measured upto 24 hrs by HPLC-MS/MS analysis; type: ADME, organism-based; conditions: in vivo, po
[18] = Clearance in C57BL/6 mouse at 40 mg/kg,iv measured upto 24 hrs by HPLC-MS/MS analysis; type: ADME, organism-based; conditions: in vivo
[19] = Bioavailability in C57BL/6 mouse at 40 mg/kg,IG measured upto 24 hrs by HPLC-MS/MS analysis; type: ADME, organism-based; conditions: in vivo, po
[20] = AUC (0 to t) in C57BL/6 mouse at 40 mg/kg,iv measured upto 24 hrs by HPLC-MS/MS analysis; type: ADME, organism-based; parameters: dose 40 mg/kg, time < 24 hrs, route iv; conditions: in vivo
[21] = Brain concentration in C57BL/6 mouse at 40 mg/kg,IG measured after 6 hrs by HPLC analysis; type: ADME, organism-based; conditions: po, read-out: Ct
[22] = molecular target: Voltage-gated inwardly rectifying potassium channel KCNH2 (Homo sapiens, UniProt Q12809); test: Cardiotoxicity against human ERG expressed in HEK293 cells by patch clamp assay; type: toxicity, cell-based
Sequence of Voltage-gated inwardly rectifying potassium channel KCNH2 (Q12809 whole entry): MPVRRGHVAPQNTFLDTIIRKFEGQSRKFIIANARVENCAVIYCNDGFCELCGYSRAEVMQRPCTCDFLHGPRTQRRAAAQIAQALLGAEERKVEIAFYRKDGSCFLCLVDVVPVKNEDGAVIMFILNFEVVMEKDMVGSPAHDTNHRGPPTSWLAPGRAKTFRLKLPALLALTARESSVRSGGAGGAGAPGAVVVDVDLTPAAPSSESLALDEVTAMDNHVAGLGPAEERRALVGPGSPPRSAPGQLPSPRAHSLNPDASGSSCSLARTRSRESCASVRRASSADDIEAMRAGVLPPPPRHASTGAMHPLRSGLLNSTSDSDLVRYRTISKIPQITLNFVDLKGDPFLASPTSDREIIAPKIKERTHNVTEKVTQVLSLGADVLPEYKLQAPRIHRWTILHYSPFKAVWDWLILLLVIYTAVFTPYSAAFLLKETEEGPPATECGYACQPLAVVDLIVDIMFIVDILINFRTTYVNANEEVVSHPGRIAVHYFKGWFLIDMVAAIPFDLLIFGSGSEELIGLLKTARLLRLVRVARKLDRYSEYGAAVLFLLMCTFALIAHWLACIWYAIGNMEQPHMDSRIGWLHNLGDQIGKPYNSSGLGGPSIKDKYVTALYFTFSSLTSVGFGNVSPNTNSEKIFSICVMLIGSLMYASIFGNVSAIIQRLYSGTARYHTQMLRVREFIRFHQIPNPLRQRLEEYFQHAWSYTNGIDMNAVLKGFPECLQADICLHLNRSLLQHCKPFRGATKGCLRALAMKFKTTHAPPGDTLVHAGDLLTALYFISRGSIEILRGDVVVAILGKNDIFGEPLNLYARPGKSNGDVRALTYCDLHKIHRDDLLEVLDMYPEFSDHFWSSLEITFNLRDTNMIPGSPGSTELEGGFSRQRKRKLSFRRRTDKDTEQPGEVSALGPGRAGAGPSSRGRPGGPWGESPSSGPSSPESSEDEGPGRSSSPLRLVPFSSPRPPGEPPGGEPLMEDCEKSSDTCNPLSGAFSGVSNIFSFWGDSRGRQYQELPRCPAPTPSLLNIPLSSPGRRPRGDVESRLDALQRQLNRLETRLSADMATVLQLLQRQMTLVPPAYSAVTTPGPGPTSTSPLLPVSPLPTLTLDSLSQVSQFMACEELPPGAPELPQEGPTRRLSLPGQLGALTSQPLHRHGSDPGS

[23] = Brain concentration in C57BL/6 mouse at 40 mg/kg,IG measured after 0.25 hrs by HPLC analysis; type: ADME, organism-based; conditions: po, read-out: Ct
[24] = Plasma concentration in C57BL/6 mouse at 40 mg/kg,IG measured after 0.25 hrs by HPLC analysis; type: ADME, organism-based; conditions: po
Mus musculus [25] = test: Analgesic activity in C57BL/6 mouse model of CFA-induced mechanical hyperalgesia assessed as […] at 40 to 80 mg/kg,po measured after 7 days by Von Frey test; type: functional, organism-based; conditions: dose 40-80 mg/kg, time 7.0 day
[26] = Ratio of drug concentration in brain to plasma in C57BL/6 mouse at 40 mg/kg,IG measured after 6 hrs by HPLC analysis; type: ADME, organism-based; conditions: po

O=C(Nc1scc(-c2ccc(Cl)cc2)c1C(=O)O)c1cc(F)ccc1F
Activity (Mus musculus [1]): Dde | inhibition [2]: 95.6% | concentration at 6 h [3]: 24.3 µg/mL | Cmax [4]: 97.7 µg/mL | inhibition [5]: 6.5% | inhibition [6]: 21.4% | Activity [7]: Non-Toxic | Vd [8]: 0.8 L/kg | Activity [9]: Non-Toxic | Activity [10]: Non-Toxic | AUC(0-t) at 24 h [11]: 596 µg·h/mL | concentration at 24 h [12]: 74.8 ng/g | Tmax [13]: 4.8 min | inhibition [14]: 32% | inhibition at 72 h, 30 µM [15]: < 10% | Cmax [16]: 183 µg/mL | Tmax [17]: 15 min | clearance [18]: 1.73 mL/min/kg | bioavailability [19]: 75.7% | AUC(0-t) at 24 h [20]: 350 µg·h/mL | concentration at 6 h [21]: 337 ng/g | IC50 [22]: > 30 µM | concentration at 0.25 h [23]: 1440 ng/g | concentration at 0.25 h [24]: 97.7 µg/mL | Activity (Mus musculus [25]): Active | Ratio [26]: 1.4%
